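Step 1: Grow cells in 96-well plates. Step 2: Expose to compound for 48 hours at 5 concentrations. Step 3: Interpolate endpoints linearly; if unreached, use highest concentration. GI50 marks 50% less growth.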 Activity calls are given as the source filed them. No stated cut-off is given here; in the data, active = GI50 up to about 1.1 µM and inactive = higher.
Assays:
Assay in all cases: NCI tumour cell line growth inhibition, 48 h
RPMI-8226 = test system: RPMI-8226
HL-60 = test system: HL-60
NCI-H460 = test system: NCI-H460
OVCAR-5 = test system: OVCAR-5
HCT-116 = test system: HCT-116
NCI-H522 = test system: NCI-H522
SNB-19 = test system: SNB-19
UACC-257 = test system: UACC-257
IGROV-1 = test system: IGROV-1
SK-MEL-28 = test system: SK-MEL-28
OVCAR-3 = test system: OVCAR-3
UO-31 = test system: UO-31
M14 = test system: M14
SK-MEL-5 = test system: SK-MEL-5
HCC 2998 = test system: HCC 2998
NCI-H226 = test system: NCI-H226
SF-539 = test system: SF-539
SNB-75 = test system: SNB-75

Row | SMILES | GI50 (RPMI-8226) | GI50 (HL-60) | GI50 (NCI-H460) | GI50 (OVCAR-5) | GI50 (HCT-116) | GI50 (NCI-H522) | GI50 (SNB-19) | GI50 (UACC-257) | GI50 (IGROV-1) | GI50 (SK-MEL-28) | GI50 (OVCAR-3) | GI50 (UO-31) | GI50 (M14) | GI50 (SK-MEL-5) | GI50 (HCC 2998) | GI50 (NCI-H226) | GI50 (SF-539) | GI50 (SNB-75)
1 | Cc1cn(C2CC(CCCO)C(CO)O2)c(=O)[nH]c1=O (centres undefined) | > 100 µM (inactive) | > 100 µM (inactive) | > 100 µM (inactive) | > 100 µM (inactive) | > 100 µM (inactive) | > 100 µM (inactive) | > 100 µM (inactive) | > 100 µM (inactive) | > 100 µM (inactive) | > 100 µM (inactive) | > 100 µM (inactive) | > 100 µM (inactive) | > 100 µM (inactive) | > 100 µM (inactive) | > 100 µM (inactive) |  |  | 
2 | CC(C)C(CCOS(=O)(=O)O)CCC(C)[C@H]1[C@@H](O)C(O)C2[C@]3(O)C[C@@H](O)C4(O)C[C@@H](O)CC[C@]4(C)C3CC[C@@]21C (some centres undefined) | > 100 µM (inactive) | > 100 µM (inactive) | > 100 µM (inactive) |  | > 100 µM (inactive) | > 100 µM (inactive) | > 100 µM (inactive) |  | > 100 µM (inactive) | > 100 µM (inactive) | > 100 µM (inactive) | > 100 µM (inactive) | > 100 µM (inactive) | > 100 µM (inactive) | > 100 µM (inactive) | > 100 µM (inactive) | > 100 µM (inactive) | 
3 | FC(F)(F)c1ccc2nc(NCc3ccccc3)c(-c3ccccc3)nc2c1 | 36.4 µM (inactive) | 19.3 µM (inactive) | 41 µM (inactive) | 90.2 µM (inactive) | 29 µM (inactive) |  | 46.2 µM (inactive) | 28.1 µM (inactive) |  | 84.9 µM (inactive) | 27.6 µM (inactive) | 25 µM (inactive) |  |  | 29.9 µM (inactive) | 37.8 µM (inactive) | 30.2 µM (inactive) | 46.2 µM (inactive)
4 | O=C(O)/C=C/n1c2ccccc2c(=O)c2ccccc21 | > 100 µM (inactive) | > 100 µM (inactive) | > 100 µM (inactive) | > 100 µM (inactive) | > 100 µM (inactive) | > 100 µM (inactive) | > 100 µM (inactive) | > 100 µM (inactive) | > 100 µM (inactive) | > 100 µM (inactive) | > 100 µM (inactive) | > 100 µM (inactive) | > 100 µM (inactive) |  | > 100 µM (inactive) | > 100 µM (inactive) | > 100 µM (inactive) | 
5 | COC(=O)c1ccccc1/C=C1\Cc2cc(C)cc(C)c2C1=O | > 100 µM (inactive) | > 100 µM (inactive) | > 100 µM (inactive) | > 100 µM (inactive) | > 100 µM (inactive) | 5.46 µM (inactive) | 72.4 µM (inactive) | > 100 µM (inactive) | > 100 µM (inactive) | > 100 µM (inactive) | > 100 µM (inactive) |  |  | > 100 µM (inactive) | > 100 µM (inactive) | > 100 µM (inactive) | > 100 µM (inactive) | 72.4 µM (inactive)
6 | CCOC(=O)C1C(=O)C(=O)N2CCc3c([nH]c4ccccc34)C12 (centres undefined) | > 100 µM (inactive) | > 100 µM (inactive) |  | > 100 µM (inactive) | > 100 µM (inactive) | > 100 µM (inactive) | > 100 µM (inactive) |  | > 100 µM (inactive) | > 100 µM (inactive) | > 100 µM (inactive) | > 100 µM (inactive) | > 100 µM (inactive) | > 100 µM (inactive) | > 100 µM (inactive) |  | > 100 µM (inactive) | 
7 | Cc1ccc(S(=O)(=O)ON/N=C2/C3OC3[C@@H]3CCCC[C@H]23)cc1 (some centres undefined) | > 100 µM (inactive) | > 100 µM (inactive) | > 100 µM (inactive) |  |  | > 100 µM (inactive) | > 100 µM (inactive) | 0.692 µM (active) | > 100 µM (inactive) | > 100 µM (inactive) | > 100 µM (inactive) | > 100 µM (inactive) | > 100 µM (inactive) |  | 71.4 µM (inactive) | > 100 µM (inactive) | > 100 µM (inactive) | > 100 µM (inactive)
8 | CC(=O)Nc1ccc(C(=O)NN2C(=O)C(Cl)C2c2ccc([N+](=O)[O-])cc2)cc1 (centres undefined) |  | > 100 µM (inactive) | > 100 µM (inactive) | > 100 µM (inactive) | > 100 µM (inactive) | > 100 µM (inactive) | > 100 µM (inactive) | > 100 µM (inactive) | > 100 µM (inactive) | > 100 µM (inactive) | > 100 µM (inactive) | > 100 µM (inactive) | > 100 µM (inactive) | > 100 µM (inactive) |  | > 100 µM (inactive) | > 100 µM (inactive) | > 100 µM (inactive)
9 | Nc1ncnc2c1ncn2C1OC(CSC(F)F)C(O)C1O (centres undefined) | > 100 µM (inactive) | > 100 µM (inactive) | > 100 µM (inactive) | > 100 µM (inactive) | > 100 µM (inactive) | 86.3 µM (inactive) |  | > 100 µM (inactive) | > 100 µM (inactive) | > 100 µM (inactive) | > 100 µM (inactive) | > 100 µM (inactive) | > 100 µM (inactive) | > 100 µM (inactive) | > 100 µM (inactive) | > 100 µM (inactive) | > 100 µM (inactive) | > 100 µM (inactive)
10 | OC1CC(O)O[C@H](c2ccccc2)C1 (some centres undefined) | > 100 µM (inactive) | > 100 µM (inactive) | > 100 µM (inactive) | > 100 µM (inactive) | > 100 µM (inactive) |  | > 100 µM (inactive) | > 100 µM (inactive) | > 100 µM (inactive) | > 100 µM (inactive) | > 100 µM (inactive) | > 100 µM (inactive) | > 100 µM (inactive) | > 100 µM (inactive) | > 100 µM (inactive) | > 100 µM (inactive) | > 100 µM (inactive) | > 100 µM (inactive)
11 | NC(CCC(=O)NC(CSC(=O)N(O)c1ccccc1)C(=O)NCC(=O)O)C(=O)O (centres undefined) |  | > 1000 µM (inactive) | > 1000 µM (inactive) | > 1000 µM (inactive) | > 1000 µM (inactive) | > 1000 µM (inactive) | > 1000 µM (inactive) | > 1000 µM (inactive) | > 1000 µM (inactive) | > 1000 µM (inactive) | > 1000 µM (inactive) | 918 µM (inactive) | > 1000 µM (inactive) | > 1000 µM (inactive) | > 1000 µM (inactive) | > 1000 µM (inactive) | > 1000 µM (inactive) | > 1000 µM (inactive)
12 | Cc1c2cc[n+](C)cc2c(C)c2c1[nH]c1ccc(Oc3ccccc3)cc12 | 1.62 µM (inactive) |  |  | 3.31 µM (inactive) | 1.54 µM (inactive) |  | 0.67 µM (active) | 1.18 µM (inactive) | 2.23 µM (inactive) | 3.28 µM (inactive) | 1.6 µM (inactive) | 7.29 µM (inactive) | 4.48 µM (inactive) | 0.794 µM (active) | 2.61 µM (inactive) | 0.492 µM (active) | 1.88 µM (inactive) | 0.44 µM (active)
13 | N=c1oc2c(O)c(O)ccc2cc1C(N)=O | 32.1 µM (inactive) | > 10 µM (inactive) | > 100 µM (inactive) | > 100 µM (inactive) | 51.1 µM (inactive) | 58.6 µM (inactive) | > 100 µM (inactive) | 32.1 µM (inactive) | > 100 µM (inactive) | 85.7 µM (inactive) | 46.8 µM (inactive) | > 100 µM (inactive) | 43 µM (inactive) |  | > 100 µM (inactive) | > 100 µM (inactive) | > 100 µM (inactive) | 30.2 µM (inactive)
14 | CC(=O)OC1C[C@H]2C(OC(=O)c3ccccc3)C3C4(OC(C)=O)COC4C[C@H](OC(C)=O)[C@@]3(C)C(OC(C)=O)[C@H](OC(C)=O)C(=C1C)C2(C)C (some centres undefined) | 20.4 µM (inactive) | 16.7 µM (inactive) | 35.5 µM (inactive) | > 100 µM (inactive) | 40 µM (inactive) | 20.4 µM (inactive) | 24.2 µM (inactive) | 58.6 µM (inactive) | 41.8 µM (inactive) | > 100 µM (inactive) | 64.7 µM (inactive) | 24.9 µM (inactive) | 23.2 µM (inactive) | 26.3 µM (inactive) |  | 34.1 µM (inactive) | 50 µM (inactive) | 14.3 µM (inactive)
15 | Cc1cc(C)nc(NS(=O)(=O)c2ccc(Nc3c4ccccc4nc4c(C(=O)N5CCN(CCO)CC5)cccc34)cc2)n1 |  | > 100 µM (inactive) | > 100 µM (inactive) | > 100 µM (inactive) | > 100 µM (inactive) |  | > 100 µM (inactive) | > 100 µM (inactive) | > 100 µM (inactive) | > 100 µM (inactive) | > 100 µM (inactive) | > 100 µM (inactive) | > 100 µM (inactive) | > 100 µM (inactive) | > 100 µM (inactive) | > 100 µM (inactive) | > 100 µM (inactive) | 95.7 µM (inactive)
16 | CN(C)CC/C(=N\Nc1c(F)c(F)c(F)c(F)c1F)c1ccccc1 | 19 µM (inactive) | 9.68 µM (inactive) | 28 µM (inactive) | 49.9 µM (inactive) | 86.9 µM (inactive) | 14.3 µM (inactive) | 54.1 µM (inactive) | 24.1 µM (inactive) | 22.2 µM (inactive) | > 100 µM (inactive) | > 10 µM (inactive) | 7.38 µM (inactive) | > 10 µM (inactive) | 14.2 µM (inactive) |  |  | 40.2 µM (inactive) | 3.35 µM (inactive)
17 | Cc1c(C(=O)c2ccccc2C(=O)O)c2ccccc2n1C | > 100 µM (inactive) | > 100 µM (inactive) | > 100 µM (inactive) | > 100 µM (inactive) | > 100 µM (inactive) |  |  | > 100 µM (inactive) | > 100 µM (inactive) | > 100 µM (inactive) | > 100 µM (inactive) | > 100 µM (inactive) | > 100 µM (inactive) | > 100 µM (inactive) | > 100 µM (inactive) | > 100 µM (inactive) | > 100 µM (inactive) | > 100 µM (inactive)
